Experimental data as given in patent publication US6413947B1, “Anilide derivative, production and use thereof” (Takeda Chemical Industries, Ltd., priority 1997, dated 2002).

Target: T1, human MCP-1 receptor (Homo sapiens, UniProt P41597)
T1 construct: expressed in transfected cells; host or cells: CHO cells, transformant CHO(MCR); FERM BP-5446; IFO 50461
Assay: Determination of inhibitory activity on MCP-1 receptor (125I-MCP-1 binding to CHO cells expressing human MCP-1 receptor)
Settings: Test Compound 1 μM, 125I-human recombinant MCP-1 100 pM, room temperature 40 minutes
Protocol: According to a method described in Working Example 1 of JP-A-238688/1997, human MCP-1 receptor gene was prepared. Said gene was inserted to plasmid pMCR, which was introduced into CHO cell. The resultant transformant [CHO(MCR); FERM BP-5446; IFO 50461] was used for the following experiment.
On 96 well culture plate (Packard Instrument Company), 7×10^4 cell/well of CHO cells expressing human MCP-1 receptor were inoculated, and the cells were cultivated at 37° C., overnight. The medium was removed by means of suction. To the residue were added a buffer solution (D-MEM containing 0.5% BSA and 20 mM HEPES; pH7.4), Test Compound (1 μM) and ^125I-human recombinant MCP-1 (Amersham; final concentration: 100 pM), and the mixture was allowed to react at room temperature for 40 minutes. The buffer solution was removed by means of suction and washed twice with PBS. To the residue was added MICROSCINT-20 (Packard Instrument Company), radioactivity of ^125I (cpm) was determined with Topcount (Packard).
The count number (cpm) (non-specific binding) of ^125I which binds to CHO cells (mock) having a vector was taken from the count number (cpm) of ^125I which binds to CHO cells expressing human MCP-1 receptor to obtain the amended count number, which was converted into 100%, and inhibition rate of Test Compound (whose number is referred to in the following Examples) against MCP-1 binding to its receptor was calculated.

T1 sequence (P41597 whole entry): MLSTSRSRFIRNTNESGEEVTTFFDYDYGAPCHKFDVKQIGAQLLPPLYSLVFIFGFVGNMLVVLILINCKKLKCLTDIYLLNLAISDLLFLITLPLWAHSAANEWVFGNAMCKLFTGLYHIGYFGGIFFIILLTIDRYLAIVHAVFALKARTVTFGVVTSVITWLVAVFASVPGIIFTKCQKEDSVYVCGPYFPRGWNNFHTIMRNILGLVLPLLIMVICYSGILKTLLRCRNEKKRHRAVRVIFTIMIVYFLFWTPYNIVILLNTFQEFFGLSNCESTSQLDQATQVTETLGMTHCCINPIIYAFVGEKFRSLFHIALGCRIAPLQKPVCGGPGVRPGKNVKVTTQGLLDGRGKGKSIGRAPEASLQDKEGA

| Structure (SMILES) | Inhibition Rate (%) against MCP-1 binding to its receptor |
| --- | --- |
| CN(Cc1ccc(NC(=O)C2=Cc3cc(-c4ccc(N5CCCCC5)cc4)ccc3OCC2)cc1)C1CCOCC1 [Compound 151] | 80% |
| Cc1ccc(-c2ccc3c(c2)C=C(C(=O)Nc2ccc(C[N+]4(C)CCCCC4)cc2)CCO3)cc1 [Compound 97, 1—(N-(7—(4-methylphenyl)-2,3-dihydro-1-benzoxepin-4-carbonyl)-4-aminobenzyl)-1-methylpiperidinium chloride] | 96% |
| Cc1ccc(-c2cccc(/C=C/C(=O)Nc3ccc(C[N+]4(C)CCCCC4)cc3)c2)cc1 [Compound 72, (E)-1-methyl-1-[4—(3—(4-methylphenyl)cinnamamido)benzyl]-piperidinium iodide] | 77% |
| Cc1ccc(-c2ccc3c(c2)C=C(C(=O)Nc2ccc(C[N+]4(C)CCCCC4)cc2)CCS3)cc1 [Compound 94, 1—(N-(7—(4-methylphenyl)-2,3-dihydro-1-benzo-thiepine-4-carbonyl)-4-aminobenzyl)-1-methyl-piperidinium iodide] | 92% |
| Cc1ccc(-c2ccc3c(c2)C=C(C(=O)Nc2ccc(CN(C)C4CCOCC4)cc2)CCO3)cc1 [Compound 128, N-(4—(N-methyl-(N-tetrahydropyran-4-yl)aminomethyl)phenyl)-7—(4-methylphenyl)-2,3-dihydro-1-benzoxepine-4-carboxamide] | 80% |
| Cc1ccc(-c2ccc3c(c2)C=C(C(=O)Nc2ccc(C[N+]4(C)CCCCC4)cc2)CC3)cc1 [Compound 16, 1-methyl-1-[4-[7—(4-methylphenyl)-3,4-dihydronaphthalene-2-carboxamido]benzyl]piperidinium iodide] | 89% |
| CCc1ccc(-c2ccc3c(c2)C=C(C(=O)Nc2ccc(CP4(=O)CCCCC4)cc2)CCO3)cc1 [Compound 178, N-(4—(pentamethylene)-phosphorylmethylphenyl)-7—(4-ethylphenyl)-2,3-dihydro-1-benzoxepine-4-carboxamide] | 64% |
| Cc1ccc(-c2ccc3c(c2)C=C(C(=O)Nc2ccc(C[N+](C)(C)C4CCOCC4)cc2)CCC3)cc1 [Compound 220, N,N-dimethyl-N-(4—((2—(4-methylphenyl)-6,7-dihydro-5H-benzocyclohepten-8-yl)carbonyl)aminobenzyl)-N-(4-tetrahydropyranyl)ammonium iodide] | 98% |

System: not given
Assay: not given
Settings: not given

| Structure (SMILES) | melting point |
| --- | --- |
| Cc1ccc(-c2ccc3c(c2)C=C(C(=O)Nc2ccc(CN(C)C4CCOCC4)cc2)CCO3)cc1 [Compound 128, N-(4—(N-methyl-(N-tetrahydropyran-4-yl)aminomethyl)phenyl)-7—(4-methylphenyl)-2,3-dihydro-1-benzoxepine-4-carboxamide] | 162 to 163 °C |
| CN1CCC(C(=O)Nc2ccc(CN(C)C3CCOCC3)cc2)=Cc2cc(-c3ccc(C(F)(F)F)cc3)ccc21 [Compound 308, 1-methyl-N-[4-[[N-methyl-N-(tetrahydropyran-4-yl)amino]-methyl]phenyl]-7-(4-trifluoromethylphenyl)-2,3-dihydro-1-benzoazepine-4-carboxamide] | 187.5 to 188.5 °C |
| Cc1ccc(-c2csc(/C=C/C(=O)Nc3ccc(CN(C)C4CCOCC4)cc3)c2)cc1 [Compound 212, (E)-N-[4-[N-methyl-N-(tetrahydropyran-4-yl)aminomethyl]-phenyl)-3-[4—(4-methylphenyl)thiophen-2-yl]acrylamide] | 188 to 190 °C |
| CN1CCC(C(=O)Nc2ccc(CN(C)C3CCOCC3)cc2)=Cc2cc(-c3ccc(N4CCCCC4)cc3)ccc21 [Compound 316, 1-methyl-N-[4-[[N-methyl-N-(tetrahydro-2H-pyran-4-yl)amino]methyl]-phenyl]-7-[4-(1-piperidinyl)phenyl]-2,3-dihydro-1-benzazepine-4-carboxamide] | 202 to 204 °C |
| Cc1ccc(-c2ccc3c(c2)C=C(C(=O)Nc2ccc(CNc4ccccn4)cc2)CCO3)cc1 [Compound 322, N-[4-[(pyrid-2-yl)aminomethyl]phenyl]-7-(4-methylphenyl)-2,3-dihydro-1-benzoxepine-4-carboxamide] | 189 to 190 °C |
| Cc1ccc(-c2ccc3c(c2)C=C(C(=O)Nc2ccc(Cc4ncccc4O)cc2)CCO3)cc1 [Compound 174, N-[4—(3-hydroxypyridin-2-ylmethyl)phenyl]-7—(4-methylphenyl)-2,3-dihydro-1-benzoxepine-4-carboxamide] | 285 to 288 °C |
| Cc1ccc(-c2ccc3c(c2)C=C(C(=O)Nc2ccc(C(O)c4cccc[n+]4[O-])cc2)C(C)O3)cc1 (stereo not drawn) [Compound 203, N-[4-[hydroxy(1-oxidopyridin-2-yl)-methyl]phenyl]-6—(4-methylphenyl)-2-methyl-2H-1-benzopyran-3-carboxamide] | 230 to 232 °C |
| CN(Cc1ccc(NC(=O)C2=Cc3cc(-c4ccc(OC(F)(F)F)cc4)ccc3OCC2)cc1)C1CCOCC1 [Compound 186, N-[4-[N-methyl-N-(tetrahydropyran-4-yl)aminomethyl]phenyl]-7—(4-trifluoromethoxyphenyl)-2,3-dihydro-1-benzoxepine-4-carboxamide] | 187 to 188 °C |
| CN1CCCN(C)P1(=O)Cc1ccc(NC(=O)C2=Cc3cc(-c4ccccc4)ccc3CC2)cc1 [Compound 89, 2—(4—(3,4-dihydro-7-phenyl-naphthalene-2-carbonyl-amino)benzyl)-1,3-dimethyl-1,3,2-diazaphosphorinane-2-oxide] | 249 to 250 °C |
| CC(C)c1ccc(-c2ccc(/C=C/C(=O)Nc3ccc(CN(C)C4CCOCC4)cc3)s2)cc1 [Compound 274, (E)-3-[5-(4-isopropylphenyl)thiophen-2-yl]-N-[4-[N-methyl-N-(tetrahydropyran-4-yl)aminomethyl]-phenyl]acrylamide] | 187 to 189 °C |
